Literature values in patent US20100215723A1, “Wound Dressing with Antimicrobial Gauze and Bonding Agent” (priority 2009, published 2010).

How the values were obtained:
[1] = tested on: aspergillus niger; conditions: stated as known
[2] = tested on: pseudomonas aeruginosa; conditions: stated as known

Polyhexamethylene biguanide [PHMB]
indicative MIC value [1]: 750 ppm | indicative MIC value [2]: 100 ppm
